Laboratory results published in patent US20180064829A1, “FLUORESCENT BISPHOSPHONATE ANALOGS” (University of Southern California, priority 2015, published 2018).

What was measured:
[1] = pH 7.2, 0.1M phosphate buffer; assumed the same as the corresponding fluorescent dye; cited from earlier work
bone resorption = conditions: rat model in vivo, ref. [15a]; cited from earlier work
[2] = test system: unprenylated Rap1A (uRap1A); assay: Prenylation assay: Western blot for unprenylated Rap1A in J774.2 macrophages; assay type: cell-based, mouse; conditions: 10 or 100 μM, 24 h, FIG. 5A-C
[3] = UV-VIS absorption and fluorescence emission spectra; assay type: physicochemical; conditions: 0.1M phosphate buffer (1x PBS for 7d5); ± 1 nm error
[4] = pKa and protonation status of the heterocyclic nitrogen; assay type: physicochemical; conditions: pH 6.0; calculated by Henderson-Hasselbalch equation
Source text: The nucleophilicity and Lewis basicity of the nitrogen atom of the three heterocyclic N-BPs studied in this report vary, and these properties appear to be the major determinants of their conjugation reactivity. Thus, the ‘magic linker’ methodology for RIS required modification for ZOL (1d), MIN (1e), and their related analogues (1f). […] The protonation status of the heteroatom at different pH is also critical to the reactivity. […] Under such conditions, more than 50% (˜71.3% calculated) of the nitrogen of RIS will be deprotonated, and able to attack the epoxide ring nucleophilically. However, at pH 6.0, only 18% of the nitrogen of ZOL (22% for MIN) is deprotonated, thus the reactions were very slow (2d) at pH 6.0. At pH 7.0-7.5, reaction was more rapid, but the regioselectivity (N-alkylation vs. O-alkylation) for 1d, 1e, 1f was not as good as for RIS and its analogues (1a, 1b, 1c); 10-20% of side products could be observed, which were confirmed by HPLC, NMR and MS to be the products of N,O(P)-dialkylation (O-alkylation occurs between the phosphonate/carboxylate group of the drug and the epoxide). The reaction rate of MinPC (1f)-epoxide (5) coupling was even slower than ZOL under the same reaction conditions (same reactant ratio, pH 7.5, 40-45° C.), which might be due to a steric effect from the large heterocycle. In addition, the percent of side products was higher and O-alkylation products were also observed in the reaction mixture.
The following publications are incorporated by reference herein in their entirety: • [1] a) R. G. G. Russell, N. B. Watts, F. H. Ebetino, M. J. Rogers, Osteoporos. Int. 2008, 19, 733-759; b) F. Ebetino, A. Hogan, S. Sun, M. Tsoumpra, X. Duan, J. Triffitt, A. Kwaasi, J. Dunford, B. Barnett, U. Oppermann, M. Lundy, A. Boyde, B. Kashemirov, C. McKenna, R. Russell, Bone 2011, 49 20-33. • [2] a) I. Reid, M. Bolland, A. Grey, Bone 2007, 41, 318-320; b) A. Siddiqi, A. Payne, S. Zafar, Oral Surg. Oral Med. Oral Pathol. Oral Radiol. Endod. […]

[5] = parent compounds, ref. [23]; cited from earlier work
[6] = RIS; not covered by the MarvinSketch note; cited from earlier work

SMILES	Extinction coefficient [1]	Anti-resorptive activity (bone resorption)	accumulation of unprenylated Rap1A (anti-prenylation activity) [2]	Maximum absorption wavelength (λmax (abs), nm) [3] [nm]	Maximum emission wavelength (λmax (em), nm) [3] [nm]	fraction of the heterocyclic nitrogen deprotonated [4] [%]	rank order of mineral binding affinity [5]	pKa of the heterocyclic nitrogen [6]
O=C(NCC(O)C[n+]1ccn(CC(O)(P(=O)(O)O)P(=O)(O)O)c1)c1ccc(-c2c3ccc(=O)cc-3oc3cc(O)ccc23)c(C(=O)O)c1 (centres unmarked) [Compound 5-FAM-ZOL, 3-(3-(3-carboxy-4-(6-hydroxy-3-oxo-3H-xanthen-9-yl)benzamido)-2-hydroxypropyl)-1-(2-hydroxy-2,2-diphosphonoethyl)-1H-imidazol-3-ium]	73,000 (pH 7.2) M^−1cm^−1	demonstrated	retain some activity, although their potencies are weaker than native ZOL	493	521			
O=P(O)(O)C(O)(Cc1cccnc1)P(=O)(O)O [RIS, (1-hydroxy-2-pyridin-3-ylethane-1,1-diyl)bis(phosphonic acid)]						~71.3	RIS>dRIS>RISPC	5.67
